The source of these data is patent publication US6337338B1, “Heteroaryl-aryl ureas as IGF-1 receptor antagonists” (Telik, Inc., priority 1998, dated 2002).

For orientation: inhibition means the change of the read-out against control, counted positive when it falls.

The target in test [1] is T1, IGF-1R-cytoplasmic kinase domain (IGF-1R-CKD; amino acids 959-1367 of IGF-1R) (Homo sapiens, UniProt P08069).
T1 construct: amino acids 959-1367 of IGF-1R
As to the kind of experiment: IGF-1R substrate assay (KS2 phosphorylation). It is filed as biochemical. Particulars: compounds 50 μM; 50 μM ATP; KS2-biotin substrate. Here is the method:
Nunc Maxisorp plates were coated with 100 μL 10 μg/mL-streptavidin at […] The plates were washed in 20 mM Tris pH7.6, 150 mM NaCl, 0.05% Tween 20, 0.8 mM Na3VO4, and 0.04% Biocide between all steps of the assay. The plates were blocked in 200 μL 50 mM Hepes/150 mM NaCl/0.1% Triton-X 100 overnight at 4° C. or for 2 hr at 25-37° C.
Aliquots of the IGF-1R-cytoplasmic kinase domain (IGF-1R-CKD; amino acids 959-1367 of IGF-1R) were purified and stored at −80° C. until use. KS2 (GPWLEEEEEAYGWMDF; SEQ ID NO:1), gastrin (1-17) that is a substrate for many tyrosine kinases including the insulin receptor, was synthesized as a biotin conjugate (KS2-biotin) (Baldwin et al., Nature, 301:435-37 (1983)). The assay mixture consisted of 0.2 μg/mL IGF-1R-CKD (concentration adjusted for optimal response), 300-900 nM KS2-biotin (depending on optimal response), 2 mM […], 5 mM MgCl2 (4-10 mM […] can be substituted), compounds to be tested (50 μM) or their vehicle, and 50 μM ATP. The start of phosphorylation begins with the addition of ATP. Incubation was continued for 10-30 minutes, at which time, the reaction was stopped through the quenching the metals with 20 mM EDTA (final concentration).
The reaction was diluted 1:10 in buffer A (2 mM HEPES pH 7.6, 0.05% Triton X-100, 0.05% bovine serum albumin (BSA)) and 100 μL was captured onto washed, coated and blocked, streptavidin Nunc Maxisorp plate, overnight at 4° C. or 2 hr at 37° C. Anti-phosphotyrosine antibody (12.5 ng/well) conjugated to horseradish peroxidase (RC20:HRPO by Transduction Laboratories ) was diluted into 0.5X Buffer B (25 mM Hepes pH7.6, 75 mM NaCl, 0.025% Tween 20, 2 mM Na3VO4+1% BSA) and incubated for 1.5 to 2 hr at 25° C. The phosphorylated substrate was measured by developing the plate with 100 μL 3′, 3′, 5,5′ tetramethylbenzidine (TMB), and quantified using a plate reader.

The next test relates to MCF-7 or MCF-10 cells. As to the kind of experiment: Cell proliferation assay (CellTiter 96, MTS). The note with it: 1 nM IGF-1, 48 h, FIG. 2. The class given is cell-based. Here is the method:
5000 cells (MCF-7 or MCF-10) were plated into 96 well plates and grown for 24 h as in Example 4, above. Cells were washed in serum free DMEM, then 100 μl media and 1 nM IGF-1 were added to wells in the presence of or absence of compound 5 (see Example 2) and hormone. After 48 h, viability was determined by CellTiter 96™ (Promega). This kit is a chromogenic bioassay procedure for the measurement of cell proliferation. Briefly, 20 μl (3-[4,5,dimethylthiazol-2-yl]-5-[3-carboxymethoxyphenyl]-2-[4-sulfophenyl]-2H-tetrazolium, inner salt (MTS) was added to each well and incubation was continued for 3-4 h. Viable cells reduced the MTS to formazan, which was then measured at 492 nm using an ELISA plate reader. Cell proliferation was calculated based on the increase in the number of viable cells.

The test system of another test is MCF-7 cells. As to the kind of experiment: Cell growth inhibition study by protein assay, MCF-7. It is filed as cell-based. The note with it: 1 nM IGF-1, 48 h, FIG. 1b. Here is the method: 100,000 cells (MCF-7) were plated into 24 well dishes, and grown in complete Dulbecco's modified Eagle's medium (DMEM) supplemented with 10% fetal calf serum (FCS) for 24 h. Cells were washed twice in serum-free DMEM, then 0.5 ml DMEM supplemented with 0^5% FCS […] was added with or without a heteroaryl-aryl compound, compound 5, and in the presence or absence of 1 nM hormone (IGF-1 or insulin, respectively). After 48 h at 37° C., cells were washed twice with phosphate buffered saline (PBS) then solubilized in 0.03% sodium dodecyl sulfate (SDS). Protein was determined using the BCA Protein Assay reagent from Pierce Chemical with BSA serving as a standard.

Another test deals with MCF-10 cells. Briefly: Cell growth inhibition study by protein assay, MCF-10. It is filed as cell-based. Particulars: 1 nM IGF-I, FIG. 1a. Here is the method:
MFC-10 cells were plated as above in DMEM/Ham's F12 medium (DMEM/F12) supplemented with 5% horse serum, 8 ng/ml epidermal growth factor (EGF), 0.5 μg/ml hydrocortisone, 0.1 μg/mL cholera toxin. After 24 hr, cells were washed twice in serum free DMEM/F12, then 0.5 ml DMEM/12 with 0.5% horse serum added with or without test compound, and in the […] of 1 nM IGF-I.

T1 sequence (P08069 959-1367): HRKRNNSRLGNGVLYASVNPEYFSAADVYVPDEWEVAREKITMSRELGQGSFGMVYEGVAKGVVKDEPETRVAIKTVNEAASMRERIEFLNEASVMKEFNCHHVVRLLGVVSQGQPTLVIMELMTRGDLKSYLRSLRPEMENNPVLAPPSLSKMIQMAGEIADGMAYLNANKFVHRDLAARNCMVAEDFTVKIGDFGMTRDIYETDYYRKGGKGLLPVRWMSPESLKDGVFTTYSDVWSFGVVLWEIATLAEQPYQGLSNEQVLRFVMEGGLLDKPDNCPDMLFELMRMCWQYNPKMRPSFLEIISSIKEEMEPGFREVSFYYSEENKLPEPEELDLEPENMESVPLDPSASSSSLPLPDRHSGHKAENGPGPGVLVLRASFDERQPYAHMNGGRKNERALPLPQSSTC

`Cc1ccc(NC(=O)Nc2cnc3ccccc3c2)cc1Cl` [Compound 8, N-(3-chloro-4-methylphenyl)-N′-(3-quinolinyl) urea] displayed an inhibition at 50 µM in test [1] of 65%. Regarding `CCc1ccc(NC(=O)Nc2cccc3cccnc23)cc1` [Compound 9, N-(4-ethylphenyl)-N′-(8-quinolinyl) urea], in test [1], the inhibition at 50 µM is 33%. Molecule `O=C(Nc1cc(Cl)cc(Cl)c1)Nc1nccs1` [Compound 14, N-(3,5-dichlorophenyl)-N′-(1,3-thiazol-2-yl) urea] showed an inhibition at 50 µM in test [1] of 17%. `COc1ccc(Cl)cc1NC(=O)Nc1cc(C)nc2ccccc12` [Compound 7, N-(2-methoxy-5-chlorophenyl)-N′-(2-methyl-4-quinolinyl) urea] showed an inhibition at 50 µM in test [1] of 23%. On to `Cc1ccc(NC(=O)Nc2nccs2)cc1Cl` [Compound 12, N-(3-chloro-4-methylphenyl)-N′-(1,3-thiazol-2-yl) urea], for which the inhibition at 50 µM in test [1] was found to be 21%. In the case of `COc1c(Cl)cccc1NC(=O)Nc1cc(C)nc2ccccc12` [Compound 5, N-(2-methoxy-3-chlorophenyl)-N′-(2-methyl-4-quinolinyl) urea], the “IGF-1R stimulated cell proliferation” value in the test on MCF-7 or MCF-10 cells is “decrease in IGF-1R stimulated cell proliferation”. In test [1], this molecule displayed an inhibition at 50 µM of 21%. For the same molecule, the “IGF-1 stimulated cell growth (protein assay)” value in the test on MCF-7 cells and with MCF-10 cells was “inhibit IGF-1 stimulated cell growth” in each case. Regarding `COc1c(Cl)cccc1NC(=O)Nc1nccs1` [Compound 11, N-(2-methoxy-3-chlorophenyl)-N′-(1,3-thiazol-2-yl) urea], in test [1], the inhibition at 50 µM was 21%. The molecule `O=C(Nc1cccc(Cl)c1)Nc1cnc2ccccc2c1` [Compound 10, N-(3-chlorophenyl)-N′-(3-quinolinyl) urea] registered an inhibition at 50 µM in test [1] of 26%.

Turning to `COc1ccccc1NC(=O)Nc1nccs1` [Compound 13, N-(2-methoxyphenyl)-N′-(1,3-thiazol-2-yl) urea], the inhibition at 50 µM in test [1] was 20%.
